In patent US10251395B2, “Substituted furano-/thienocycloalkylamino-2-pyrimidine derivatives and use thereof for controlling undesired plant growth” (Bayer CropScience Aktiengesellschaft, priority 2015, dated 2019):

Columns and labels:
Amaranthus retroflexus [1] = assay: Pre-emergence herbicidal effect; type: in vivo; details: scored visually after 3 weeks
Outline: (§1)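 Seeds sown in sandy loam and covered with soil; WP or EC formulations sprayed onto the soil surface as aqueous suspension/emulsion at 600 to 800 L/ha water with 0.2% wetting agent. Greenhouse-grown; damage scored visually after 3 weeks against untreated controls (100% = plants dead, 0% = like control).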

Echinochloa crus-galli [2] = assay: Pre-emergence herbicidal effect; type: in vivo; details: scored visually after 3 weeks
Outline: as §1

Polygonum convolvulus [3] = assay: Pre-emergence herbicidal effect; type: in vivo; details: scored visually after 3 weeks
Outline: as §1

Alopecurus myosuroides [4] = assay: Pre-emergence herbicidal effect; type: in vivo; details: scored visually after 3 weeks
Outline: as §1

Ipomoea purpurea [5] = assay: Pre-emergence herbicidal effect; type: in vivo; details: scored visually after 3 weeks
Outline: as §1

Matricaria inodora [6] = assay: Pre-emergence herbicidal effect; type: in vivo; details: scored visually after 3 weeks
Outline: as §1

Abutilon theophrasti [7] = assay: Pre-emergence herbicidal effect; type: in vivo; details: scored visually after 3 weeks
Outline: as §1

Viola tricolor [8] = assay: Pre-emergence herbicidal effect; type: in vivo; details: scored visually after 3 weeks
Outline: as §1

Veronica persica [9] = assay: Pre-emergence herbicidal effect; type: in vivo; details: scored visually after 3 weeks
Outline: as §1

Lolium multiflorum [10] = assay: Pre-emergence herbicidal effect; type: in vivo; details: scored visually after 3 weeks
Outline: as §1

Stellaria media [11] = assay: Pre-emergence herbicidal effect; type: in vivo; details: scored visually after 3 weeks
Outline: as §1

Setaria viridis [12] = assay: Pre-emergence herbicidal effect; type: in vivo; details: scored visually after 3 weeks
Outline: as §1

logP (HCOOH) = type: physicochemical; details: HCOOH
From the text: Table 2 (physicochemical characterization of selected synthesis examples)

Amaranthus retroflexus [13] = assay: Post-emergence herbicidal effect; type: in vivo; details: assessed visually after about 3 weeks vs untreated controls
Outline: (§2)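 Percent herbicidal action was judged by eye roughly 3 weeks post-application, 0% matching control plants and 100% meaning plant death. Seedlings, greenhouse-grown in sandy loam, received the spray at one leaf.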

Echinochloa crus-galli [14] = assay: Post-emergence herbicidal effect; type: in vivo; details: assessed visually after about 3 weeks vs untreated controls
Outline: as §2

Polygonum convolvulus [15] = assay: Post-emergence herbicidal effect; type: in vivo; details: assessed visually after about 3 weeks vs untreated controls
Outline: as §2

Alopecurus myosuroides [16] = assay: Post-emergence herbicidal effect; type: in vivo; details: assessed visually after about 3 weeks vs untreated controls
Outline: as §2

Ipomoea purpurea [17] = assay: Post-emergence herbicidal effect; type: in vivo; details: assessed visually after about 3 weeks vs untreated controls
Outline: as §2

Abutilon theophrasti [18] = assay: Post-emergence herbicidal effect; type: in vivo; details: assessed visually after about 3 weeks vs untreated controls
Outline: as §2

Avena fatua [19] = assay: Post-emergence herbicidal effect; type: in vivo; details: 320 g/ha, assessed visually after about 3 weeks vs untreated controls
Outline: as §2

Viola tricolor [20] = assay: Post-emergence herbicidal effect; type: in vivo; details: assessed visually after about 3 weeks vs untreated controls
Outline: as §2

Veronica persica [21] = assay: Post-emergence herbicidal effect; type: in vivo; details: assessed visually after about 3 weeks vs untreated controls
Outline: as §2

Lolium multiflorum [22] = assay: Post-emergence herbicidal effect; type: in vivo; details: assessed visually after about 3 weeks vs untreated controls
Outline: as §2

Stellaria media [23] = assay: Post-emergence herbicidal effect; type: in vivo; details: assessed visually after about 3 weeks vs untreated controls
Outline: as §2

Setaria viridis [24] = assay: Post-emergence herbicidal effect; type: in vivo; details: assessed visually after about 3 weeks vs untreated controls
Outline: as §2

Avena fatua [25] = assay: Pre-emergence herbicidal effect; type: in vivo; details: Dosage 320 g/ha, scored visually after 3 weeks
Outline: as §1

Matricaria inodora [26] = assay: Post-emergence herbicidal effect; type: in vivo; details: assessed visually after about 3 weeks vs untreated controls
Outline: as §2

Nc1nc(N[C@@H]2CCCc3sccc32)ncc1C(F)(F)F [compound 46]
AMARE pre-emergence efficacy (herbicidal activity) (Amaranthus retroflexus [1]; Dosage 80 g/ha): 100% | AMARE pre-emergence efficacy (herbicidal activity) (Amaranthus retroflexus [1]; Dosage 320 g/ha): 100% | ECHCG pre-emergence efficacy (herbicidal activity) (Echinochloa crus-galli [2]; Dosage 80 g/ha): 100% | ECHCG pre-emergence efficacy (herbicidal activity) (Echinochloa crus-galli [2]; Dosage 320 g/ha): 100% | POLCO pre-emergence efficacy (herbicidal activity) (Polygonum convolvulus [3]; Dosage 80 g/ha): 90% | POLCO pre-emergence efficacy (herbicidal activity) (Polygonum convolvulus [3]; Dosage 320 g/ha): 100% | ALOMY pre-emergence efficacy (herbicidal activity) (Alopecurus myosuroides [4]; Dosage 80 g/ha): 100% | ALOMY pre-emergence efficacy (herbicidal activity) (Alopecurus myosuroides [4]; Dosage 320 g/ha): 100% | PHBPU pre-emergence efficacy (herbicidal activity) (Ipomoea purpurea [5]; Dosage 320 g/ha): 100% | MATIN pre-emergence efficacy (herbicidal activity) (Matricaria inodora [6]; Dosage 80 g/ha): 100% | MATIN pre-emergence efficacy (herbicidal activity) (Matricaria inodora [6]; Dosage 320 g/ha): 100% | ABUTH pre-emergence efficacy (herbicidal activity) (Abutilon theophrasti [7]; Dosage 320 g/ha): 80% | VIOTR pre-emergence efficacy (herbicidal activity) (Viola tricolor [8]; Dosage 80 g/ha): 100% | VIOTR pre-emergence efficacy (herbicidal activity) (Viola tricolor [8]; Dosage 320 g/ha): 100% | VERPE pre-emergence efficacy (herbicidal activity) (Veronica persica [9]; Dosage 80 g/ha): 100% | VERPE pre-emergence efficacy (herbicidal activity) (Veronica persica [9]; Dosage 320 g/ha): 100% | LOLMU pre-emergence efficacy (herbicidal activity) (Lolium multiflorum [10]; Dosage 80 g/ha): 80% | LOLMU pre-emergence efficacy (herbicidal activity) (Lolium multiflorum [10]; Dosage 320 g/ha): 100% | STEME pre-emergence efficacy (herbicidal activity) (Stellaria media [11]; Dosage 80 g/ha): 100% | STEME pre-emergence efficacy (herbicidal activity) (Stellaria media [11]; Dosage 320 g/ha): 100% | SETVI pre-emergence efficacy (herbicidal activity) (Setaria viridis [12]; Dosage 80 g/ha): 100% | SETVI pre-emergence efficacy (herbicidal activity) (Setaria viridis [12]; Dosage 320 g/ha): 100% | logP (HCOOH) (logP (HCOOH)): oily; logP (HCOOH): 1.91; 1H NMR (CDCl3, 400 MHZ, δ in ppm): 1.80-1.95 (m, | post-emergence efficacy AMARE (Amaranthus retroflexus [13]; 80 g/ha): 100% | post-emergence efficacy AMARE (Amaranthus retroflexus [13]; 320 g/ha): 100% | post-emergence efficacy ECHCG (Echinochloa crus-galli [14]; 80 g/ha): 100% | post-emergence efficacy ECHCG (Echinochloa crus-galli [14]; 320 g/ha): 100% | post-emergence efficacy POLCO (Polygonum convolvulus [15]; 80 g/ha): 90% | post-emergence efficacy POLCO (Polygonum convolvulus [15]; 320 g/ha): 90% | post-emergence efficacy ALOMY (Alopecurus myosuroides [16]; 80 g/ha): 90% | post-emergence efficacy ALOMY (Alopecurus myosuroides [16]; 320 g/ha): 100% | post-emergence efficacy PHBPU (Ipomoea purpurea [17]; 320 g/ha): 80% | post-emergence efficacy ABUTH (Abutilon theophrasti [18]; 320 g/ha): 40% | post-emergence efficacy AVEFA (Avena fatua [19]): 80% | post-emergence efficacy VIOTR (Viola tricolor [20]; 80 g/ha): 80% | post-emergence efficacy VIOTR (Viola tricolor [20]; 320 g/ha): 100% | post-emergence efficacy VERPE (Veronica persica [21]; 80 g/ha): 80% | post-emergence efficacy VERPE (Veronica persica [21]; 320 g/ha): 100% | post-emergence efficacy LOLMU (Lolium multiflorum [22]; 80 g/ha): 80% | post-emergence efficacy LOLMU (Lolium multiflorum [22]; 320 g/ha): 100% | post-emergence efficacy STEME (Stellaria media [23]; 80 g/ha): 100% | post-emergence efficacy STEME (Stellaria media [23]; 320 g/ha): 100% | post-emergence efficacy SETVI (Setaria viridis [24]; 80 g/ha): 90% | post-emergence efficacy SETVI (Setaria viridis [24]; 320 g/ha): 90%

CC(=O)c1cnc(NC2CCCc3sc(C)cc32)nc1N (centres unmarked) [compound 283]
AMARE pre-emergence efficacy (herbicidal activity) (Amaranthus retroflexus [1]; Dosage 80 g/ha): 100% | AMARE pre-emergence efficacy (herbicidal activity) (Amaranthus retroflexus [1]; Dosage 320 g/ha): 100% | ECHCG pre-emergence efficacy (herbicidal activity) (Echinochloa crus-galli [2]; Dosage 80 g/ha): 100% | ECHCG pre-emergence efficacy (herbicidal activity) (Echinochloa crus-galli [2]; Dosage 320 g/ha): 100% | POLCO pre-emergence efficacy (herbicidal activity) (Polygonum convolvulus [3]; Dosage 80 g/ha): 100% | POLCO pre-emergence efficacy (herbicidal activity) (Polygonum convolvulus [3]; Dosage 320 g/ha): 100% | ALOMY pre-emergence efficacy (herbicidal activity) (Alopecurus myosuroides [4]; Dosage 80 g/ha): 80% | ALOMY pre-emergence efficacy (herbicidal activity) (Alopecurus myosuroides [4]; Dosage 320 g/ha): 100% | PHBPU pre-emergence efficacy (herbicidal activity) (Ipomoea purpurea [5]; Dosage 80 g/ha): 60% | PHBPU pre-emergence efficacy (herbicidal activity) (Ipomoea purpurea [5]; Dosage 320 g/ha): 100% | MATIN pre-emergence efficacy (herbicidal activity) (Matricaria inodora [6]; Dosage 80 g/ha): 100% | MATIN pre-emergence efficacy (herbicidal activity) (Matricaria inodora [6]; Dosage 320 g/ha): 100% | ABUTH pre-emergence efficacy (herbicidal activity) (Abutilon theophrasti [7]; Dosage 80 g/ha): 90% | ABUTH pre-emergence efficacy (herbicidal activity) (Abutilon theophrasti [7]; Dosage 320 g/ha): 100% | AVEFA pre-emergence efficacy (herbicidal activity) (Avena fatua [25]): 80% | VIOTR pre-emergence efficacy (herbicidal activity) (Viola tricolor [8]; Dosage 80 g/ha): 100% | VIOTR pre-emergence efficacy (herbicidal activity) (Viola tricolor [8]; Dosage 320 g/ha): 100% | VERPE pre-emergence efficacy (herbicidal activity) (Veronica persica [9]; Dosage 320 g/ha): 100% | LOLMU pre-emergence efficacy (herbicidal activity) (Lolium multiflorum [10]; Dosage 80 g/ha): 100% | LOLMU pre-emergence efficacy (herbicidal activity) (Lolium multiflorum [10]; Dosage 320 g/ha): 100% | STEME pre-emergence efficacy (herbicidal activity) (Stellaria media [11]; Dosage 80 g/ha): 100% | STEME pre-emergence efficacy (herbicidal activity) (Stellaria media [11]; Dosage 320 g/ha): 100% | SETVI pre-emergence efficacy (herbicidal activity) (Setaria viridis [12]; Dosage 80 g/ha): 100% | SETVI pre-emergence efficacy (herbicidal activity) (Setaria viridis [12]; Dosage 320 g/ha): 100% | post-emergence efficacy AMARE (Amaranthus retroflexus [13]; 80 g/ha): 90% | post-emergence efficacy AMARE (Amaranthus retroflexus [13]; 320 g/ha): 100% | post-emergence efficacy ECHCG (Echinochloa crus-galli [14]; 80 g/ha): 80% | post-emergence efficacy ECHCG (Echinochloa crus-galli [14]; 320 g/ha): 100% | post-emergence efficacy POLCO (Polygonum convolvulus [15]; 320 g/ha): 70% | post-emergence efficacy ALOMY (Alopecurus myosuroides [16]; 320 g/ha): 90% | post-emergence efficacy PHBPU (Ipomoea purpurea [17]; 80 g/ha): 80% | post-emergence efficacy PHBPU (Ipomoea purpurea [17]; 320 g/ha): 90% | post-emergence efficacy MATIN (Matricaria inodora [26]; 80 g/ha): 90% | post-emergence efficacy MATIN (Matricaria inodora [26]; 320 g/ha): 90% | post-emergence efficacy ABUTH (Abutilon theophrasti [18]; 80 g/ha): 90% | post-emergence efficacy ABUTH (Abutilon theophrasti [18]; 320 g/ha): 90% | post-emergence efficacy AVEFA (Avena fatua [19]): 80% | post-emergence efficacy VIOTR (Viola tricolor [20]; 80 g/ha): 90% | post-emergence efficacy VIOTR (Viola tricolor [20]; 320 g/ha): 100% | post-emergence efficacy VERPE (Veronica persica [21]; 320 g/ha): 100% | post-emergence efficacy LOLMU (Lolium multiflorum [22]; 320 g/ha): 100% | post-emergence efficacy STEME (Stellaria media [23]; 80 g/ha): 100% | post-emergence efficacy STEME (Stellaria media [23]; 320 g/ha): 100% | post-emergence efficacy SETVI (Setaria viridis [24]; 80 g/ha): 50% | post-emergence efficacy SETVI (Setaria viridis [24]; 320 g/ha): 90%
